This test has as its system DNFB-induced mouse model of allergic contact dermatitis. As to the kind of experiment: DNFB-induced mouse model of allergic contact dermatitis (ear swelling). The class given is in vivo, Male ICR mice. Particulars: for Swelling degree / Inhibition (%) of ear swelling: mice, 5 mg/kg intragastric once a day for 6 days; for Swelling degree: ear slices weighed 24 h after DNFB challenge, Mean ± SD, n = 6; for Inhibition (%) of ear swelling: vs model group. The procedure:
Male ICR mice (20 ± 2 g) were obtained from the Experimental Animal Centre of Anhui Medical University (Hefei, China). The mice reared in a pathogen-free setting (23 ± 2 °C, 55 ± 5% humidity) with free access to water and pelleted food throughout the experimental cycle. All experimental procedures performed in accordance with guide for the Care and Use of Laboratory Animals (National Research Council, 1996) and were approved by the Experimental Animal Ethics Committee of Anhui University of Chinese Medicine (Hefei, China). After 7 days acclimatisation, the mice were randomly divided into control group, ACD model group, dexamethasone positive control group and 20 compound groups, six in each group. The control group and the model group were given the same dose of the vehicle, the positive control group was given dexamethasone 0.5 mg/kg, and the test compound groups were given compound 5 mg/kg, all of which were given by intragastric administration and were administered once a day for 6 days. Except for the control group, the 50 µL of 1% DNFB (in acetone/olive oil 4:1) was administered to the stripped epidermis, and repeated the next day. After 6 days of drug treatment, 10 µL of 1% DNFB acetone olive oil solution was applied on both sides of the right ear to stimulate inflammation, and equivalent acetone olive oil solution was applied on the left ear for comparison. […] Calculation was carried out according to the following equations. Swelling degree (mg) = MR – ML Inhibitory rate of ear swelling (%)=((MR – ML) model – (MR – ML) treated)/(MR – ML) model ×100% MR=Average weight of the right ear slices;ML= Average weight of the left ear slices […] Dexamethasone (DEX) at a p.o. dose of 0.5 mg/kg was employed as the positive control. After the mice were sacrificed, the swelling degree and inhibition rate were calculated by weighing the same part of both ears.

On to `CC(=O)c1ccccc1C(=O)N1CCN(Cc2ccc(Cl)cc2)CC1` [Compound 6a, 1–(2-(4–(4-Chlorobenzyl)piperazine-1-carbonyl)phenyl)ethan-1-one], for which the “Swelling degree” value is on record as 11.9 ± 3.7 mg and the “Inhibition (%) of ear swelling” value is listed as 27.4%.
The matching figures for `COc1ccc(CN2CCN(C(=O)c3ccccc3C(C)=O)CC2)cc1` [Compound 6b, 1–(2-(4–(4-Methoxybenzyl)piperazine-1-carbonyl)phenyl)ethan-1-one]: 12.0 ± 3.4 mg and 26.8%.
Turning to `CC(=O)c1ccccc1C(=O)N1CCN(Cc2ccc(C#N)cc2)CC1` [Compound 6c, 4-((4–(2-Acetylbenzoyl)piperazin-1-yl)methyl)benzonitrile], the “Swelling degree” value is given as 11.3 ± 4.0 mg and the “Inhibition (%) of ear swelling” value came to 31.1%.
The corresponding values for `CC(=O)c1ccccc1C(=O)N1CCN(Cc2ccc(C(F)(F)F)cc2)CC1` [Compound 6d, 1–(2-(4–(4-(Trifluoromethyl)benzyl)piperazine-1-carbonyl)phenyl)ethan-1-one] are 12.5 ± 3.4 mg and 23.8%.
The corresponding values for `CC(=O)c1ccccc1C(=O)N1CCN(Cc2ccc([N+](=O)[O-])cc2)CC1` [Compound 6e, 1–(2-(4–(4-Nitrobenzyl)piperazine-1-carbonyl)phenyl)ethan-1-one] are 13.0 ± 3.3 mg and 20.7%.
The corresponding values for `CC(=O)c1ccccc1C(=O)N1CCN(Cc2ccc(Cl)cc2Cl)CC1` [Compound 6g, 1–(2-(4–(2,4-Dichlorobenzyl)piperazine-1-carbonyl)phenyl)ethan-1-one] are 12.9 ± 2.6 mg and 21.3%.
For the compound `CC(=O)c1ccccc1C(=O)N1CCN(Cc2ccccc2Cl)CC1` [Compound 6h, 1–(2-(4–(2-Chlorobenzyl)piperazine-1-carbonyl)phenyl)ethan-1-one], the “Swelling degree” value worked out at 12.8 ± 4.1 mg and the “Inhibition (%) of ear swelling” value is on record as 21.9%.
For the compound `CC(=O)c1ccccc1C(=O)N1CCN(Cc2cccc(Cl)c2)CC1` [Compound 6i, 1–(2-(4–(3-Chlorobenzyl)piperazine-1-carbonyl)phenyl)ethan-1-one], the “Swelling degree” value is given as 12.0 ± 3.0 mg and the “Inhibition (%) of ear swelling” value came out at 26.8%.
`CC(=O)c1ccccc1C(=O)N1CCN(Cc2ccccc2)CC1` [Compound 6k, 1–(2-(4-Benzylpiperazine-1-carbonyl)phenyl)ethan-1-one]: the “Swelling degree” value is given as 13.0 ± 3.5 mg and the “Inhibition (%) of ear swelling” value amounted to 20.7%.
The corresponding values for `CC(=O)c1ccccc1C(=O)N1CCN(Cc2ccc(C)cc2)CC1` [Compound 6l, 1–(2-(4–(4-Methylbenzyl)piperazine-1-carbonyl)phenyl)ethan-1-one] are 11.4 ± 3.2 mg and 30.5%.
The matching figures for `COc1ccc(CN2CCN(C(=O)c3ccccc3C(C)=O)CC2)c(OC)c1` [Compound 6m, 1–(2-(4–(2,4-Dimethoxybenzyl)piperazine-1-carbonyl)phenyl)ethan-1-one]: 11.6 ± 2.4 mg and 29.3%.
The matching figures for `COc1cccc(CN2CCN(C(=O)c3ccccc3C(C)=O)CC2)c1` [Compound 6o, 1–(2-(4–(3-Methoxybenzyl)piperazine-1-carbonyl)phenyl)ethan-1-one]: 13.0 ± 4.4 mg and 20.7%.
In the case of `CC(=O)c1ccccc1C(=O)N1CCN(Cc2ccc3c(c2)OCO3)CC1` [Compound 6p, 1–(2-(4-(Benzo[d][1,3]dioxol-5-ylmethyl)piperazine-1-carbonyl)phenyl)ethan-1-one], the “Swelling degree” value came to 11.0 ± 3.2 mg and the “Inhibition (%) of ear swelling” value is given as 32.9%. Besides, where the note is “p.o. 5 mg/kg, p < 0.01”, the “in vivo inhibitory activity, in words” value is reported as “significant inhibitory activity”.

The values above are taken from paper PMC6882468 (Journal of Enzyme Inhibition and Medicinal Chemistry, 2019).
